Results on 4 compounds are retold here after patent US9783527B2, “Indazole ureas and method of use” (AbbVie Inc., priority 2014, dated 2017).

The target in assay [1] is human Nav1.7 (Homo sapiens (Human), UniProt Q15858). Briefly: FRET-based membrane potential assay, recombinant human sodium channel Nav1.7. It counts as cell-based. As to conditions: HEK293 cells stably expressing recombinant human Nav1.7; depolarization with veratridine (EC80) + scorpion venom. A digest of the protocol: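 IC50 derived by four-parameter Hill fit of percent inhibition of depolarization, measured as peak F440-480/F565-625 ratio over baseline. Stable human Nav1.7 HEK293 cells, dye-loaded with CC2-DMPE and DiSBAC2(3)/VABSC-1 at room temperature, received compound 3 min ahead of veratridine (EC80) plus scorpion venom.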

The subject of assay [2] is spinal nerve ligation-induced neuropathic pain in rats. Briefly: Rat spinal nerve ligation (SNL) model of neuropathic pain, von Frey paw withdrawal threshold. In kind it is in vivo. As to conditions: SNL dose 100 mg/kg; male Sprague Dawley rats, mechanical sensitivity (von Frey). An excerpt:
Rat Spinal Nerve Ligation (SNL) Model of Neuropathic Pain.
A model of spinal nerve ligation-induced (SNL model) neuropathic pain as originally described by Kim and Chung (Kim, S. H. and J. M. Chung, 1992, Pain 50, 355) was used to test a compound of the present application. The male Sprague Dawley rats (Charles River Laboratories, Wilmington, Mass.), weighing 150-175 g at the time of surgery, were placed under isoflurane anesthesia and a 1.5 cm incision was made dorsal to the lumbosacral plexus. The paraspinal muscles (left side) were separated from the spinous processes, the left L5 and L6 spinal nerves isolated, and tightly ligated with 5-0 silk suture distal to the dorsal root ganglion. Care was taken to avoid ligating the L4 spinal nerve. Following spinal nerve ligation, a minimum of 7 days of recovery and no more than 3 weeks was allowed prior to the behavioral testing (mechanical sensitivity). Only rats with threshold scores ≦4.5 g were considered allodynic and utilized in pharmacological experiments.
Mechanical sensitivity was measured using calibrated von Frey filaments (Stoelting, Wood Dale, Ill.). Paw withdrawal threshold (PWT) was determined by using the Dixon's up-down method (Dixon, W. J., 1980, Ann. Rev. Pharmacol. Toxicol., 20, 441). Rats were placed into inverted individual plastic containers (20×12.5×20 cm) on top of a suspended wire mesh with a 1 cm^2 grid to provide access to the ventral side of the hind paws, and acclimated to the test chambers for 20 minutes. The von Frey filaments were presented perpendicularly to the plantar surface of the selected hind paw, and then held in this position for approximately 8 seconds with enough force to cause a slight bend in the filament. Positive responses included an abrupt withdrawal of the hind paw from the stimulus, or flinching behavior immediately following removal of the stimulus. A 50% withdrawal threshold was determined using an up-down procedure (Dixon, 1980). A percent maximal possible effect (% MPE) of testing compound was calculated according to the formula: (Log [compound-treated threshold]−Log [vehicle-treated threshold])/(Log [maximum threshold]−Log [vehicle-treated threshold])×100%, where the maximum threshold was equal to 15 g.
The animals were housed in Association for Assessment and Accreditation of Laboratory Animal Care (AAALAC) approved facilities at AbbVie Inc. in a temperature-regulated environment under a controlled 12-hour light-dark cycle, with lights on at 6:00 a.m. Food and water were available ad libitum at all times except during testing. All testing was done following procedures outlined in protocols approved by AbbVie Inc.s' Institutional Animal Care and Use Committee.

Sequence of human Nav1.7 (Q15858 whole entry): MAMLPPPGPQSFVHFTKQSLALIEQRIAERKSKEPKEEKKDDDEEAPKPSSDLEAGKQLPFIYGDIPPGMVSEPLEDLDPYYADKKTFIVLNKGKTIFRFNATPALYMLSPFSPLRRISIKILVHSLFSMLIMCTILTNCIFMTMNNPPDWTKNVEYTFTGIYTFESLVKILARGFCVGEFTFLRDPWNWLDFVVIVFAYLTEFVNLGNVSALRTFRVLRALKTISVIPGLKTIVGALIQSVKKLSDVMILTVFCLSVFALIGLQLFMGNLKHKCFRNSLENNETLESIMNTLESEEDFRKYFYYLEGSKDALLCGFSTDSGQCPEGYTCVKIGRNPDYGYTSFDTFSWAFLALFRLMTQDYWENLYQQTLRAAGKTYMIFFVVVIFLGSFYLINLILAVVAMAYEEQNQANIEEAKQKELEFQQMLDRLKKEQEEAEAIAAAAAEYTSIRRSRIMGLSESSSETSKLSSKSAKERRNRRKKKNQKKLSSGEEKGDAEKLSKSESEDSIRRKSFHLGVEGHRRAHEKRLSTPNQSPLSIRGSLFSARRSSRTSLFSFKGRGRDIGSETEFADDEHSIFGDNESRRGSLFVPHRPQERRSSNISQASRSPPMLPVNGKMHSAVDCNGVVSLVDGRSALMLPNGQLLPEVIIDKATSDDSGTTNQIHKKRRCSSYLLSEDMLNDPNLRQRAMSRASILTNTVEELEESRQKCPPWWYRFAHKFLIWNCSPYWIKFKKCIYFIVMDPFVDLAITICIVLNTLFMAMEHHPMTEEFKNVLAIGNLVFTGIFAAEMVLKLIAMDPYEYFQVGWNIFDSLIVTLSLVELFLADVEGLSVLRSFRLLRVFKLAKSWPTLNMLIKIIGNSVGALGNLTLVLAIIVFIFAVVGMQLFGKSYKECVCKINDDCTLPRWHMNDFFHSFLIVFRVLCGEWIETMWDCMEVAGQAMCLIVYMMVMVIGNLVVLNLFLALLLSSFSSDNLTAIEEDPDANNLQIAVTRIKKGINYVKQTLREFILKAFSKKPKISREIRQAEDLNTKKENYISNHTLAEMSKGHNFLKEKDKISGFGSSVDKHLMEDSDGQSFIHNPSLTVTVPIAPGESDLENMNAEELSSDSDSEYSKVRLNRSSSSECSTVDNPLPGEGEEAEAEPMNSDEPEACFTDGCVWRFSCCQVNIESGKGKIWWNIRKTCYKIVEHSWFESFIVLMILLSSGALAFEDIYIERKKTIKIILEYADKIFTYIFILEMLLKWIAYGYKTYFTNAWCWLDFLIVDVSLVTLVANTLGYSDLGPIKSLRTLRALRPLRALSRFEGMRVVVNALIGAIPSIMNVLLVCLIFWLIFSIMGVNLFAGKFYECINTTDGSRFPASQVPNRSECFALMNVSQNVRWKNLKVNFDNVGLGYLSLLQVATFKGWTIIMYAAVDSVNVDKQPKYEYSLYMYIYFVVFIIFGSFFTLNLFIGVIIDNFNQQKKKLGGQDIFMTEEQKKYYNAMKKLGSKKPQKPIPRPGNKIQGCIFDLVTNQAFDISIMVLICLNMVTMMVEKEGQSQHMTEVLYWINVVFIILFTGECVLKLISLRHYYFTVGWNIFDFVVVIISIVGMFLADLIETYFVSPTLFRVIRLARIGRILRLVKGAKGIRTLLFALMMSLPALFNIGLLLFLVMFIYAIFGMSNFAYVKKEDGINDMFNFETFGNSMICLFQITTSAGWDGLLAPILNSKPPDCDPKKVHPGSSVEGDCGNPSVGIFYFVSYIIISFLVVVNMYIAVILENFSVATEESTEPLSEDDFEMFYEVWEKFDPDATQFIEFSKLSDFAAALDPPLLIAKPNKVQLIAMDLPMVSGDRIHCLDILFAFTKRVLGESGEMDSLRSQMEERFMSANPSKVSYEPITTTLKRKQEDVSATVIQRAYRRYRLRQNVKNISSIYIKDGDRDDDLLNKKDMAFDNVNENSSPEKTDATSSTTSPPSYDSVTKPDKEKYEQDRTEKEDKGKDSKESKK

Regarding `Cc1noc(C(C)N2CCN(c3cccc4c3cnn4-c3ccccc3F)C2=O)n1` (racemic) [Example 46, 1-[1-(2-fluorophenyl)-1H-indazol-4-yl]-3-[1-(3-methyl-1,2,4-oxadiazol-5-yl)ethyl]imidazolidin-2-one], the IC50 in assay [1] is 1.87 µM. Besides, in assay [2], the “SNL MPE (%)” value was found to be 59%.

`C[C@H]1CCCN1C(=O)CN1CCN(c2cccc3c2cnn3-c2ccccc2F)C1=O` [Example 15, 1-[1-(2-fluorophenyl)-1H-indazol-4-yl]-3-{2-[(2S)-2-methylpyrrolidin-1-yl]-2-oxoethyl}imidazolidin-2-one]: the IC50 in assay [1] was 0.625 µM. Further, the “SNL MPE (%)” value in assay [2] worked out at 74%.

`Cc1noc(C)c1CN1CCN(c2cccc3c2cnn3-c2ccccc2F)C1=O` [Example 27, 1-[(3,5-dimethyl-1,2-oxazol-4-yl)methyl]-3-[1-(2-fluorophenyl)-1H-indazol-4-yl]imidazolidin-2-one]: the IC50 in assay [1] is 0.546 µM. In assay [2], the “SNL MPE (%)” value stood at 63%.

For the compound `O=C(CN1CCN(c2cccc3c2cnn3-c2ccccc2F)C1=O)N[C@@H]1CCOC1` [Example 55, 2-{3-[1-(2-fluorophenyl)-1H-indazol-4-yl]-2-oxoimidazolidin-1-yl}-N-[(3R)-tetrahydrofuran-3-yl]acetamide], in assay [1], the IC50 stood at 2.24 µM. The “SNL MPE (%)” value in assay [2] was 91%.

In general, IC50 refers to the concentration needed to halve the response being measured.
